Test results taken from PubChem BioAssay AID2060885 (Molecular Pharmacology Branch, DTP, NCI, 2025).

Test system: NCI-H23 complex spheroids with HUVEC/MSC, viability
Experiment: Anticancer human tumor NCI-H23 cell line growth inhibition [RAS];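 note: spheroids exposed to compound for 7 days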;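 for viability, T/C: 100% = DMSO vehicle control viability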
Conditions: for IC50: curve of first compound; for viability, T/C: stronger effect = lower value
Outline: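 Agents were tested in combination matrices in half-log decrements from a top concentration at or near clinical Cmax (10 microM if undetermined). Targets were multi-cell spheroids of tumour lines plus HUVEC and MSC stromal cells.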

[1] = second compound 0.00316 µM, first compound 0.0316 µM
[2] = second compound 0.00316 µM, first compound 0.1 µM
[3] = second compound 0.00316 µM, first compound 0.316 µM
[4] = second compound 0.00316 µM, first compound 1 µM
[5] = second compound 0.00316 µM, first compound 3.16 µM
[6] = second compound 0.00316 µM, first compound 10 µM
[7] = second compound 0.01 µM, first compound 0.0316 µM
[8] = second compound 0.01 µM, first compound 0.1 µM
[9] = second compound 0.01 µM, first compound 0.316 µM
[10] = second compound 0.01 µM, first compound 1 µM
[11] = second compound 0.01 µM, first compound 3.16 µM
[12] = second compound 0.01 µM, first compound 10 µM
[13] = second compound 0.0316 µM, first compound 0.0316 µM
[14] = second compound 0.0316 µM, first compound 0.1 µM
[15] = second compound 0.0316 µM, first compound 0.316 µM
[16] = second compound 0.0316 µM, first compound 1 µM
[17] = second compound 0.0316 µM, first compound 3.16 µM
[18] = second compound 0.0316 µM, first compound 10 µM
[19] = second compound 0.1 µM, first compound 0.0316 µM
[20] = second compound 0.1 µM, first compound 0.1 µM
[21] = second compound 0.1 µM, first compound 0.316 µM
[22] = second compound 0.1 µM, first compound 1 µM
[23] = second compound 0.1 µM, first compound 3.16 µM
[24] = second compound 0.1 µM, first compound 10 µM
[25] = second compound 0.316 µM, first compound 0.0316 µM
[26] = second compound 0.316 µM, first compound 0.1 µM
[27] = second compound 0.316 µM, first compound 0.316 µM
[28] = second compound 0.316 µM, first compound 1 µM
[29] = second compound 0.316 µM, first compound 3.16 µM
[30] = second compound 0.316 µM, first compound 10 µM
[31] = second compound 1 µM, first compound 0.0316 µM
[32] = second compound 1 µM, first compound 0.1 µM
[33] = second compound 1 µM, first compound 0.316 µM
[34] = second compound 1 µM, first compound 1 µM
[35] = second compound 1 µM, first compound 3.16 µM
[36] = second compound 1 µM, first compound 10 µM

CC1(O)CCCC1n1c(=O)c(C(F)F)cc2cnc(NC3CCN(S(C)(=O)=O)CC3)nc21 (stereo unspecified) + C=CC(=O)N1CCN(c2nc(OCC3CCCN3C)nc3c(F)c(-c4nc(N)cc(C)c4C(F)(F)F)c(Cl)cc23)C(C)C1
IC50 (second compound 0.00316 µM): < 31.6 nM
IC50 (second compound 0.01 µM): < 31.6 nM
IC50 (second compound 0.0316 µM): < 31.6 nM
IC50 (second compound 0.1 µM): < 31.6 nM
IC50 (second compound 0.316 µM): < 31.6 nM
IC50 (second compound 1 µM): < 31.6 nM
viability, T/C [1]: 46.8%
viability, T/C [2]: 41.8%
viability, T/C [3]: 30.8%
viability, T/C [4]: 29.7%
viability, T/C [5]: 28.1%
viability, T/C [6]: 6.28%
viability, T/C [7]: 44.6%
viability, T/C [8]: 32.1%
viability, T/C [9]: 24.9%
viability, T/C [10]: 27.3%
viability, T/C [11]: 25.9%
viability, T/C [12]: 4.38%
viability, T/C [13]: 36.1%
viability, T/C [14]: 26.5%
viability, T/C [15]: 23.1%
viability, T/C [16]: 25.3%
viability, T/C [17]: 26.5%
viability, T/C [18]: 3.8%
viability, T/C [19]: 34.6%
viability, T/C [20]: 28.7%
viability, T/C [21]: 22.1%
viability, T/C [22]: 22.6%
viability, T/C [23]: 23.6%
viability, T/C [24]: 4.58%
viability, T/C [25]: 31.2%
viability, T/C [26]: 23.1%
viability, T/C [27]: 22.4%
viability, T/C [28]: 20.3%
viability, T/C [29]: 27.6%
viability, T/C [30]: 3.96%
viability, T/C [31]: 27.1%
viability, T/C [32]: 25.9%
viability, T/C [33]: 21%
viability, T/C [34]: 22%
viability, T/C [35]: 23.5%
viability, T/C [36]: 2.26%

CCN1CCN(Cc2ccc(Nc3ncc(F)c(-c4cc(F)c5nc(C)n(C(C)C)c5c4)n3)nc2)CC1 + C=CC(=O)N1CCN(c2nc(OCC3CCCN3C)nc3c(F)c(-c4nc(N)cc(C)c4C(F)(F)F)c(Cl)cc23)C(C)C1
IC50 (second compound 0.00316 µM): 15.3 nM
IC50 (second compound 0.01 µM): 3.55 nM
IC50 (second compound 0.0316 µM): < 3.16 nM
IC50 (second compound 0.1 µM): < 3.16 nM
IC50 (second compound 0.316 µM): < 3.16 nM
IC50 (second compound 1 µM): < 3.16 nM
viability, T/C (second compound 0.00316 µM, first compound 0.00316 µM): 55.6%
viability, T/C (second compound 0.00316 µM, first compound 0.01 µM): 58.2%
viability, T/C [1]: 38.2%
viability, T/C [2]: 26.9%
viability, T/C [3]: 26.1%
viability, T/C [4]: 23.9%
viability, T/C (second compound 0.01 µM, first compound 0.00316 µM): 49.9%
viability, T/C (second compound 0.01 µM, first compound 0.01 µM): 46.7%
viability, T/C [7]: 30.1%
viability, T/C [8]: 23.6%
viability, T/C [9]: 17.4%
viability, T/C [10]: 18.6%
viability, T/C (second compound 0.0316 µM, first compound 0.00316 µM): 44.4%
viability, T/C (second compound 0.0316 µM, first compound 0.01 µM): 37.3%
viability, T/C [13]: 24.1%
viability, T/C [14]: 21.8%
viability, T/C [15]: 17.2%
viability, T/C [16]: 20.1%
viability, T/C (second compound 0.1 µM, first compound 0.00316 µM): 36.4%
viability, T/C (second compound 0.1 µM, first compound 0.01 µM): 29.3%
viability, T/C [19]: 23.2%
viability, T/C [20]: 19.4%
viability, T/C [21]: 19.4%
viability, T/C [22]: 18.3%
viability, T/C (second compound 0.316 µM, first compound 0.00316 µM): 34.3%
viability, T/C (second compound 0.316 µM, first compound 0.01 µM): 31.7%
viability, T/C [25]: 21.9%
viability, T/C [26]: 20.5%
viability, T/C [27]: 16.6%
viability, T/C [28]: 17.2%
viability, T/C (second compound 1 µM, first compound 0.00316 µM): 28.7%
viability, T/C (second compound 1 µM, first compound 0.01 µM): 33.8%
viability, T/C [31]: 26.2%
viability, T/C [32]: 20.1%
viability, T/C [33]: 17.8%
viability, T/C [34]: 17.1%

C[C@@H](NC(=O)c1ncnc(N)c1Cl)c1ncc(C(=O)Nc2cc(C(F)(F)F)c(Cl)cn2)s1 + C=CC(=O)N1CCN(c2nc(OCC3CCCN3C)nc3c(F)c(-c4nc(N)cc(C)c4C(F)(F)F)c(Cl)cc23)C(C)C1
IC50 (second compound 0.00316 µM): > 10000 nM
IC50 (second compound 0.01 µM): 201 nM
IC50 (second compound 0.0316 µM): < 31.6 nM
IC50 (second compound 0.1 µM): < 31.6 nM
IC50 (second compound 0.316 µM): < 31.6 nM
IC50 (second compound 1 µM): < 31.6 nM
viability, T/C [1]: 72.2%
viability, T/C [2]: 79.4%
viability, T/C [3]: 61.5%
viability, T/C [4]: 63.1%
viability, T/C [5]: 63.2%
viability, T/C [6]: 59.6%
viability, T/C [7]: 60.9%
viability, T/C [8]: 53.3%
viability, T/C [9]: 47.8%
viability, T/C [10]: 44.7%
viability, T/C [11]: 45.8%
viability, T/C [12]: 52.4%
viability, T/C [13]: 43.6%
viability, T/C [14]: 49%
viability, T/C [15]: 38.9%
viability, T/C [16]: 38.6%
viability, T/C [17]: 42%
viability, T/C [18]: 40.4%
viability, T/C [19]: 43.3%
viability, T/C [20]: 46.5%
viability, T/C [21]: 36.2%
viability, T/C [22]: 42.2%
viability, T/C [23]: 45.9%
viability, T/C [24]: 39.1%
viability, T/C [25]: 42.1%
viability, T/C [26]: 37.3%
viability, T/C [27]: 40.8%
viability, T/C [28]: 40.6%
viability, T/C [29]: 42.7%
viability, T/C [30]: 41%
viability, T/C [31]: 36.4%
viability, T/C [32]: 44.4%
viability, T/C [33]: 45.4%
viability, T/C [34]: 42%
viability, T/C [35]: 43.6%
viability, T/C [36]: 40.5%
